Test results reported in patent US11491155B2, “Salt of a pyrimido[6,1-A]isoquinolin-4-one compound” (VERONA PHARMA PLC, priority 2015, dated 2022).
Counter-ions that a name gives are not always drawn.

Key:
[1] = Solubility of RPL554 salts in saline solutions, water and aqueous buffer solutions at 25° C. (HPLC); type: physicochemical; conditions: for Solubility as RPL554 (mg/ml) in 0.7 w/w % Saline / Solubility as RPL554 (mg/ml) in 0.9 w/w % Saline / Solubility as RPL554 (mg/ml) in 1.1 w/w % Saline / Solubility as RPL554 (mg/ml) in Water: 24 hours; for Solubility as RPL554 (mg/ml) in Water: deionised water
In short: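 Salts or free base (ca 50 mg) suspended in 1 ml of buffered 0.9% saline (pH 3.5–6.5), 0.7–1.1% saline or deionised water, agitated 24 h at 25° C. Filtrates analysed by HPLC with single-point calibration; solubility expressed as RPL554 free base, not salt.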

[2] = Intrinsic dissolution of compressed tablet, pH 7.0, 37° C. (Sirius inForm); type: physicochemical; conditions: for Mass of salt (μg) dissolved after 2 hours, Average / Mass of salt (μg) dissolved after 2 hours, Test 1 / Mass of salt (μg) dissolved after 2 hours, Test 2: pH 7.0, 0.15 M NaCl, 37° C.
In short: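 Compressed 3 mm tablet (~10 mg, 100 kg load), one face exposed, dissolved in pH 7.0 aqueous medium (0.15 M NaCl, 0.01 M acetate/phosphate buffer) at 37° C., stirred at 100 rpm for 2 h. UV absorbance (<1.3) converted to dissolved weight via pH-dependent molar extinction coefficients.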

[3] = Solubility of RPL554 and salts in pMDI propellant systems; type: physicochemical
In short: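 Ten actuations from each pMDI, three replicates per formulation, were filtered through a 0.20 μm filter into a vial cooled in dry ice/acetone, with about 10 s shaking between shots. The filtrate was evaporated to dryness, the residue recovered in 1 mL recovery solution and quantified by HPLC. The percent solubilised was taken against the starting RPL554 mass in the canister, computed from theoretical molecular weights of free base and salts.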

[4] = RPL554 content and content uniformity of 1% w/w lactose powder blends; type: physicochemical; conditions: for Measured Blend Content (% Theoretical): 1% w/w RPL554 variant: lactose powder blend, expressed as RPL554 base; for **Adjusted RPL554 Content per capsule: per 20 mg capsule of 1% w/w lactose blend, adjusted for measured blend content (% theoretical), as RPL554 base
In short: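 RPL554 free base or salt was sieved (38 μm) with some lactose, mortar-mixed with the rest, and Turbula-blended for 10 min at 46 rpm to give 1% w/w blends. For uniformity, ~20 mg samples from each blend were diluted to 10 mL, sonicated for 3 min and assayed by HPLC.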

[5] = Aerosol performance of DPI formulations (Cyclohaler, NGI); type: physicochemical; conditions: for †Measured Mass of 1% w/w Blend Delivered per capsule / ††RPL554 Emitted (μg) per capsule (B): Cyclohaler; for †Measured Mass of 1% w/w Blend Delivered per capsule: 5 capsules containing 20 mg powder blend, mass from weight change of capsule-loaded device; for ††RPL554 Emitted (μg) per capsule (B): NGI, mass determined from HPLC analysis of recovered samples; for ††RPL554 Emitted (μg) per capsule (B) / Calculated RPL554 Content (μg) per capsule (A): as RPL554 base; for Calculated RPL554 Content (μg) per capsule (A): calculated from delivered blend mass and measured blend content
In short: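 Capsules held 20 mg of 1% w/w RPL554 free base or salt:lactose blend (200 μg salt, not adjusted for molecular weight). Fired from Cyclohaler at 90 L/min for 2.7 s into NGI with pre-separator, 5 capsules per formulation; drug recovered from device, induction port and stages to derive ED, FPD, FPF.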

[6] = Physico-chemical characteristics of salt candidates: solubility in water, pH of aqueous suspension/solution, form post water maturation
Description: The physico-chemical characteristics of the salt candidates were determined.

[7] = listed as ethane-1,2-disulfonate salt
[8] = HFA 227: 10% Ethanol: 0.1% Tween
[9] = in HFA 134, listed as Ethane-1,2-disulfonate hemi-salt
[10] = in HFA 134 with Ethanol/Tween, listed as Ethane-1,2-disulfonate hemi-salt
[11] = listed as hydrochloride salt, hydrochloride
[12] = in HFA 134 with Ethanol/Tween, hydrochloride

COc1cc2c(cc1OC)-c1c/c(=N\c3c(C)cc(C)cc3C)n(CCNC(N)=O)c(=O)n1CC2 [Ethane-1,2-disulfonate, RPL554 ethane-1,2-disulfonate]
Solubility as RPL554 (mg/ml) in 0.7 w/w % Saline [1]: 4.79 mg/mL
Mass of salt (μg) dissolved after 2 hours, Average [2, 7]: 28.0 µg
Mass of salt (μg) dissolved after 2 hours, Test 1 [2, 7]: 21.1 µg
Mass of salt (μg) dissolved after 2 hours, Test 2 [2, 7]: 34.9 µg
Estimated Solubilised RPL554 μg per 50 μL actuation [3, 8]: 0.11 µg
Solubility RPL554 [3, 8]: 1.69 µg/g
Estimated RPL554 solubilised (%) ([3]; HFA 227: 10% Ethanol: 0.1% Tween, listed as Ethane-1,2-disulfonate hemi-salt): 0.07%
Solubility RPL554 (μg/g) ([3]; in HFA 134, BLQ = below limit of quantitation (0.06 μg/mL), listed as Ethane-1,2-disulfonate hemi-salt): BLQ
Calculated RPL554 solubilised (%) [3, 9]: BLQ
Calculated Solubilised RPL554 μg per 50 μL actuation [3, 9]: BLQ
Solubility RPL554 ([3]; in HFA 134 with Ethanol/Tween): 5 µg/g
Estimated RPL554 solubilised (%) [3, 10]: 0.20%
Estimated Solubilised RPL554 μg per 50 μL actuation [3, 10]: 0.34 µg
Solubility RPL554 [3, 10]: 5.13 µg/g
Calculated RPL554 solubilised (%) ([3]; in HFA 227): BLQ
Calculated Solubilised RPL554 μg per 50 μL actuation ([3]; in HFA 227): BLQ
Solubility RPL554 (μg/g) ([3]; in HFA 227): BLQ
Measured Blend Content (% Theoretical) [4]: 80.18 % Theoretical
**Adjusted RPL554 Content per capsule [4]: 133.73 µg
†Measured Mass of 1% w/w Blend Delivered per capsule [5]: 19.90 mg
††RPL554 Emitted (μg) per capsule (B) [5]: 87.91 µg
Calculated RPL554 Content (μg) per capsule (A) [5]: 133.06 µg
pH of aqueous suspension/solution ([6]; listed as Ethane-1,2-disulfonic): 3.72

COc1cc2c(cc1OC)-c1c/c(=N\c3c(C)cc(C)cc3C)n(CCNC(N)=O)c(=O)n1CC2 [Hydrochloride, RPL554 hydrochloride]
Solubility as RPL554 (mg/ml) in 0.7 w/w % Saline ([1]; hydrochloride): 2.85 mg/mL
Solubility as RPL554 (mg/ml) in 0.9 w/w % Saline ([1]; hydrochloride): 1.93 mg/mL
Solubility as RPL554 (mg/ml) in 1.1 w/w % Saline ([1]; hydrochloride): 2.48 mg/mL
Solubility as RPL554 (mg/ml) in Water ([1]; hydrochloride): 12.66 mg/mL
solubility at 24 h ([1]; phosphate buffer in 0.9% w/w saline, 25 °C, pH 6.5, aqueous buffer, thermodynamic from solid, in saline 0.9% w/w, read-out: Solubility as RPL554 (mg/ml) in buffer solution pH 6.5, Phosphate): 0.02 mg/mL
Mass of salt (μg) dissolved after 2 hours, Average [2, 11]: 35.6 µg
Mass of salt (μg) dissolved after 2 hours, Test 1 [2, 11]: 31.7 µg
Mass of salt (μg) dissolved after 2 hours, Test 2 [2, 11]: 39.4 µg
Solubility RPL554 (μg/g) ([3]; in HFA 134, BLQ = below limit of quantitation (0.06 μg/mL), hydrochloride): BLQ
Calculated RPL554 solubilised (%) ([3]; in HFA 134, hydrochloride): BLQ
Calculated Solubilised RPL554 μg per 50 μL actuation ([3]; in HFA 134, hydrochloride): BLQ
Estimated RPL554 solubilised (%) [3, 12]: 5.27%
Estimated Solubilised RPL554 μg per 50 μL actuation [3, 12]: 9.79 µg
Solubility RPL554 [3, 12]: 149.17 µg/g
Calculated RPL554 solubilised (%) ([3]; in HFA 227): BLQ
Calculated Solubilised RPL554 μg per 50 μL actuation ([3]; in HFA 227): BLQ
Solubility RPL554 (μg/g) ([3]; in HFA 227): BLQ
Measured Blend Content (% Theoretical) ([4]; hydrochloride): 84.42 % Theoretical
**Adjusted RPL554 Content per capsule ([4]; hydrochloride): 156.86 µg
†Measured Mass of 1% w/w Blend Delivered per capsule ([5]; hydrochloride): 20.14 mg
††RPL554 Emitted (μg) per capsule (B) ([5]; hydrochloride): 102.27 µg
Calculated RPL554 Content (μg) per capsule (A) ([5]; hydrochloride): 157.96 µg
pH of aqueous suspension/solution ([6]; listed as Hydrochloric anhydrous source, hydrochloride): 3.68
pH of aqueous suspension/solution ([6]; listed as Hydrochloric aqueous source, hydrochloride): 3.84

COc1cc2c(cc1OC)-c1c/c(=N\c3c(C)cc(C)cc3C)n(CCNC(N)=O)c(=O)n1CC2 [Sulfate, RPL554 sulfate]
Solubility as RPL554 (mg/ml) in 0.7 w/w % Saline [1]: 2.78 mg/mL
Solubility as RPL554 (mg/ml) in 0.9 w/w % Saline [1]: 1.94 mg/mL
Solubility as RPL554 (mg/ml) in 1.1 w/w % Saline [1]: 1.35 mg/mL
Solubility as RPL554 (mg/ml) in Water [1]: 12.11 mg/mL
dissolution compared with free base / other salts ([2]; 2 hour experiments): higher dissolution than the rest of the salts
dissolution behaviour over 24 hours ([2]; 24 hours experiment): did start to precipitate slowly but still remained highly supersaturated even after 24 hrs
maximum pH change (decrease) during dissolution ([2]; nominal start pH 7, listed as sulfate salt): about 0.15 pH units
Mass of salt (μg) dissolved after 2 hours, Average ([2]; listed as sulfate salt): 6205 µg
Mass of salt (μg) dissolved after 2 hours, Test 1 ([2]; listed as sulfate salt): 5910 µg
Mass of salt (μg) dissolved after 2 hours, Test 2 ([2]; listed as sulfate salt): 6500 µg
Calculated RPL554 solubilised (%) ([3]; in HFA 134): BLQ
Calculated Solubilised RPL554 μg per 50 μL actuation ([3]; in HFA 134): BLQ
Solubility RPL554 (μg/g) ([3]; in HFA 134, BLQ = below limit of quantitation (0.06 μg/mL)): BLQ
Estimated RPL554 solubilised (%) ([3]; in HFA 134 with Ethanol/Tween): 2.84%
Estimated Solubilised RPL554 μg per 50 μL actuation ([3]; in HFA 134 with Ethanol/Tween): 4.71 µg
Solubility RPL554 ([3]; in HFA 134 with Ethanol/Tween): 73.19 µg/g
Calculated RPL554 solubilised (%) ([3]; in HFA 227): BLQ
Calculated Solubilised RPL554 μg per 50 μL actuation ([3]; in HFA 227): BLQ
Solubility RPL554 (μg/g) ([3]; in HFA 227): BLQ
Measured Blend Content (% Theoretical) [4]: 73.50 % Theoretical
**Adjusted RPL554 Content per capsule [4]: 121.95 µg
†Measured Mass of 1% w/w Blend Delivered per capsule [5]: 19.78 mg
††RPL554 Emitted (μg) per capsule (B) [5]: 79.35 µg
Calculated RPL554 Content (μg) per capsule (A) [5]: 120.61 µg
pH of aqueous suspension/solution ([6]; listed as Sulfuric - aqueous solution): 1.87
